Assay results: publication PMC9785194, “New Dibenzo-α-pyrone Derivatives with α-Glucosidase Inhibitory Activities from the Marine-Derived Fungus Alternaria alternata” (Marine Drugs, 2022)

Legend:
[1] = DPPH antioxidant scavenging assay; conditions: 37 °C, 30 min, absorbance 517 nm
Description: The DPPH antioxidant scavenging assay was performed according to the previously reported method. Briefly, 50 µL of DPPH (0.34 mmol/L in EtOH) and 50 µL of a series of solutions (12.5, 25, 50, 100, and 200 μM) of the test compounds 1−10 were mixed in the wells of 96-well plates. Each mixture was incubated at 37 °C for 30 min in a dark environment. The absorbance was read at 517 nm using a microplate reader, employing distilled water as a blank for baseline correction. All experiments were performed in triplicate, and ascorbic acid was used as a positive control.

[2] = molecular target: α-glucosidase; assay: α-glucosidase inhibition assay (p-NPG substrate); type: biochemical, Saccharomyces cerevisiae; conditions: for IC50: 0.5 U/mL enzyme, p-NPG substrate, 37 °C; for α-glucosidase inhibition rate: at a concentration of 400 µM
Description: (§1) Optical rotations were measured with an Anton Paar MCP 200 Automatic Polarimeter (Anton Paar, Graz, Austria). The UV data were recorded on a Thermo Genesys-10S UV/Vis spectrophotometer (Thermo Fisher Scientific, Waltham, MA, USA). ECD spectra were recorded with a JASCO J-815 spectropolarimeter (JASCO, Tsukuba, Japan) by using CH3OH as the solvent. Infrared spectra were obtained on a Nicolet IS5 FT-IR spectrophotometer (Thermo Fisher Scientific, Waltham, MA, USA). ^1H and ^13C NMR spectroscopic data were acquired with a Bruker Avance-500 spectrometer (Bruker, Bremen, Germany) using the solvent signals as a reference (CD3OD: δH 3.31/δC 49.00). HRESIMS data were obtained using an Agilent Accurate-Mass-Q-TOF LC/MS 6520 instrument (Agilent Technologies, Santa Clara, CA, USA) equipped with an electrospray ionization (ESI) source. Semi-preparative HPLC separation was performed on an Agilent 1260 instrument equipped with a variable-wavelength UV detector (Agilent Technologies Inc., CA, USA) using a YMC-pack ODS-A (10 × 250 mm, 5 μm, 2 mL/min, YMC CO., LTD., Kyoto, Japan).
The α-glucosidase inhibitory activity assay was measured as described in previous reports. Briefly, 50 μL of 0.5 U/mL α-glucosidase and 25 μL of a series of solutions (0.1, 0.2, 0.4, 0.8 and 1.6 mM) of the test compounds 1−10 were added into 96-well plates. After incubation at 37 °C for 10 min, 25 μL of 25 mM p-NPG was added and further incubated at 37 °C for 10 min.

[3] = tested on: α-glucosidase; assay: enzyme kinetics of α-glucosidase inhibition (Lineweaver-Burk and secondary plots); type: biochemical, Saccharomyces cerevisiae; conditions: for inhibition type against α-glucosidase: Lineweaver-Burk plots; for Ki: secondary plots, free enzyme, read-out: Ki (the inhibition constant of the free enzyme)
Description: as §1
The inhibition types of compounds 2 and 3 on α-glucosidase were determined by Lineweaver−Burk plots according to a previous report. The α-glucosidase inhibition kinetics were determined with selected concentrations of p-NPG (1.5625, 3.125, 6.25, 12.5 and 25 mM) under different concentrations of 2 and 3 (200, 400 and 800 μM) by keeping the enzyme concentration at 0.5 U/mL. The inhibition constant was determined by the second plots of the apparent Km/Vm or 1/Vm versus the concentration of the inhibitor.

SMILES | IC50 [1] | IC50 [2] | α-glucosidase inhibition rate [2] | α-glucosidase inhibition rate ([2]; 400 µM) | inhibition type against α-glucosidase [3] | Ki [3]
COc1cc(O)c2c(=O)oc3cc(O)cc(CO)c3c2c1 [Compound 7, alternariol 1′-hydroxy-9-methyl ether] | 23.6 ± 1.23 µM | 6.27 ± 0.68 µM | 93.70% |  |  | 
COc1cc(O)c2c(=O)oc3c(c2c1)[C@@H](C)CC3=O [Compound 9, 1-deoxyrubralactone] |  |  | 53.95% |  |  | 
O=C1O[C@H]([C@@H](O)CO)C(O)=C1O [ascorbic acid, reference compound] | 23.7 ± 1.03 µM |  |  |  |  | 
COc1cc2oc(=O)c3c(O)cc(O)cc3c2cc1O [Compound 8, altenuisol] |  |  | 37.29% |  |  | 
COc1cc(O)c2c(=O)oc3c(O)c(O)cc(C)c3c2c1 [Compound 6, 3′-hydroxyalternariol 5-O-methyl ether] | 83.9 ± 4.14 µM |  |  |  |  | 
CC12CC(O)C(O)C=C1c1cc(O)cc(O)c1C(=O)O2 (stereo not drawn) [Compound 2, Alternolide B] |  | 725.9 ± 4.75 µM |  | 36.62% | mixed-type inhibitors | 347 µM
CC12CC(O)C(O)C=C1c1cc(O)cc(O)c1C(=O)O2 (stereo not drawn) [Compound 3, Alternolide C] |  | 451 ± 6.95 µM |  | 49.24% | mixed-type inhibitors | 108 µM
